Experiment: venous thrombosis (venous stasis under hypercoagulation with activated factor X, Wessler technique)
Type: in vivo, male Wistar rats
Details: po, administered orally, rat, thrombosis induced 4 hours after treatment, thrombus weighed
Method: The study is performed on unfasted male Wistar rats weighing 250 to 280 g, divided up into groups of 10 animals each. The test products are administered orally as a suspension in PEG 400. A thrombosis is induced 4 hours after this treatment and the thrombus formed is removed and weighed.

SMILES	inhibition in vivo at 3 mg/kg [%]
CCc1cc(=O)oc2cc(O[C@@H]3SC[C@@H](O)[C@H](O)[C@H]3O)ccc12 [Example 1, 4-ethyl-2-oxo-2H-1-benzopyran-7-yl 5-thio-β-D-xylopyranoside]	87
CCc1cc(=O)oc2cc(O[C@@H]3SC[C@@H](OC(C)=O)[C@H](OC(C)=O)[C@H]3OC(C)=O)ccc12 [Example 1a, 4-ethyl-2-oxo-2H-1-benzopyran-7-yl 2,3,4-tri-O-acetyl-5-thio-β-D-xylopyranoside]	65
Cc1cc(=O)oc2ccc(O[C@@H]3SC[C@@H](O)[C@H](O)[C@H]3O)cc12 [Example 2, 4-methyl-2-oxo-2H-1-benzopyran-6-yl 5-thio-β-D-xylopyranoside]	81
CC(=O)O[C@@H]1[C@@H](OC(C)=O)[C@H](OC(C)=O)CS[C@H]1Oc1ccc2oc(=O)cc(C)c2c1 [Example 2a, 4-methyl-2-oxo-2H-1-benzopyran-6-yl 2,3,4-tri-O-acetyl-5-thio-β-D-xylopyranoside]	53
O=c1cc(C(F)(F)F)c2ccc(O[C@@H]3SC[C@@H](O)[C@H](O)[C@H]3O)cc2o1 [Example 3, 4-trifluoromethyl-2-oxo-2H-1-benzopyran-7-yl 5-thio-β-D-xylopyranoside]	80
CC(=O)O[C@@H]1[C@@H](OC(C)=O)[C@H](OC(C)=O)CS[C@H]1Oc1ccc2c(C(F)(F)F)cc(=O)oc2c1 [Example 3a, 4-trifluoromethyl-2-oxo-2H-1-benzopyran-7-yl 2,3,4-tri-O-acetyl-5-thio-β-D-xylopyranoside]	47
Cc1cc(=O)oc2c(O[C@@H]3SC[C@@H](O)[C@H](O)[C@H]3O)cccc12 [Example 4, 4-methyl-2-oxo-2H-1-benzopyran-8-yl 5-thio-β-D-xylopyranoside]	52
CC(=O)O[C@@H]1[C@@H](OC(C)=O)[C@H](OC(C)=O)CS[C@H]1Oc1cccc2c(C)cc(=O)oc12 [Example 4a, 4-methyl-2-oxo-2H-1-benzopyran-8-yl 2,3,4-tri-O-acetyl-5-thio-β-D-xylopyranoside]	51
CCCc1cc(=O)oc2cc(O[C@@H]3SC[C@@H](O)[C@H](O)[C@H]3O)ccc12 [Example 5, 2-oxo-4-propyl-2H-1-benzopyran-7-yl 5-thio-β-D-xylopyranoside]	26
CCCc1cc(=O)oc2cc(O[C@@H]3SC[C@@H](OC(C)=O)[C@H](OC(C)=O)[C@H]3OC(C)=O)ccc12 [Example 5a, 2-oxo-4-propyl-2H-1-benzopyran-7-yl 2,3,4-tri-O-acetyl-5-thio-β-D-xylopyranoside]	46
Cc1cc(=O)oc2cccc(O[C@@H]3SC[C@@H](O)[C@H](O)[C@H]3O)c12 [Example 6, 4-methyl-2-oxo-2H-1-benzopyran-5-yl 5-thio-β-D-xylopyranoside]	42
Cc1cc(=O)oc2cccc(S[C@@H]3SC[C@@H](O)[C@H](O)[C@H]3O)c12 [Example 7, 4-methyl-2-oxo-2H-1-benzopyran-5-yl 1,5-dithio-β-D-xylopyranoside]	38
Cc1cc(=O)oc2cc(S[C@@H]3SC[C@@H](O)[C@H](O)[C@H]3O)ccc12 [Example 8, 4-methyl-2-oxo-2H-1-benzopyran-7-yl 1,5-dithio-β-D-xylopyranoside]	46
CC(=O)O[C@@H]1[C@@H](OC(C)=O)[C@H](Sc2ccc3c(C)cc(=O)oc3c2)SC[C@H]1OC(C)=O [Example 8a, 4-methyl-2-oxo-2H-1-benzopyran-7-yl 2,3,4-tri-O-acetyl-1,5-dithio-β-D-xylopyranoside]	65
Cc1cc(=O)oc2c(S[C@@H]3SC[C@@H](O)[C@H](O)[C@H]3O)cccc12 [Example 9, 4-methyl-2-oxo-2H-1-benzopyran-8-yl 1,5-dithio-β-D-xylopyranoside]	31
Cc1cc(=O)oc2ccc(S[C@@H]3SC[C@@H](O)[C@H](O)[C@H]3O)cc12 [Example 10, 4-methyl-2-oxo-2H-1-benzopyran-6-yl 1,5-dithio-β-D-xylopyranoside]	37

Reference: patent publication US5169838A, “Benzopyranone-β-D-thioxylosides and their use in therapy” (Fournier Industrie et Sante, priority 1989, dated 1992)
